One assay has as its target T1, Calpain I (Homo sapiens, UniProt P07384).
T1 construct: made in house
T1 sequence (P07384 1-714): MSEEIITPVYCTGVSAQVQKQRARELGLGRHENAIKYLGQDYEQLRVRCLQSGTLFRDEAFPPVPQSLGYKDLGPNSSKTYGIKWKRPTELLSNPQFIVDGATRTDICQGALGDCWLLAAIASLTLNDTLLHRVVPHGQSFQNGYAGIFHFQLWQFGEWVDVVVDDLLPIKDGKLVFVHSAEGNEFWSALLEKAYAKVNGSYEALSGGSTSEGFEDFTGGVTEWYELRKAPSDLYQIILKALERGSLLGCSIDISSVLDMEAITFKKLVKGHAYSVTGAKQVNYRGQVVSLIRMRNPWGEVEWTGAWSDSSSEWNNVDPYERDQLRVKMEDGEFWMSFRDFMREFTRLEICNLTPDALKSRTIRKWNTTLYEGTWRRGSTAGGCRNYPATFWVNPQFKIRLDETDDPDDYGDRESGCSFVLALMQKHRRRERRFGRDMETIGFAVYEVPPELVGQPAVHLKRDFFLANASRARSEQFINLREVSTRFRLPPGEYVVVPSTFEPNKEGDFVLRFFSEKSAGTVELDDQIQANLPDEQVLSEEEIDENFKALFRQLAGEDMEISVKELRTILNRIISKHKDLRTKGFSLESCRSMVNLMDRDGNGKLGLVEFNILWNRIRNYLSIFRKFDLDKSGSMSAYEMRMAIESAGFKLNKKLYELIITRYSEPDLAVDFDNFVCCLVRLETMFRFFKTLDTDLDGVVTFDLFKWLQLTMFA
T1 sequence (P04632 1-268 partner): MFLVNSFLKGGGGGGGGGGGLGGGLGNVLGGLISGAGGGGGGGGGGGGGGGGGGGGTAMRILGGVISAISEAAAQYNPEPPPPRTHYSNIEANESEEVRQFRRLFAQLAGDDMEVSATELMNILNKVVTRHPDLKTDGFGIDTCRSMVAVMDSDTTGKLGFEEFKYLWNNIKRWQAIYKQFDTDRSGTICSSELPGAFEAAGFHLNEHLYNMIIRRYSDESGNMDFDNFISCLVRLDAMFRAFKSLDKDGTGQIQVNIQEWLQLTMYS
Nature of the assay: Inhibition of calpain I activity (Succ-Leu-Tyr-MNA substrate hydrolysis, fluorescence). The settings on record: Example 187, in text; bisulfite addition compound; read-out: IC50 (calpain). Format: biochemical. The procedure:
To evaluate inhibitory activity, stock solutions (40 times concentrated) of each compound to be tested were prepared in 100% anhydrous DMSO and […] of each inhibitor preparation were aliquoted into each of three wells of a 96-well plate. Calpain I, prepared by a modification of the method of W. J. Lee et al. (Biochem. […] To start the reaction, […] of 50 mM CaCl2 in assay buffer was added to each of the wells of the plate, excepting three, which were used as background signal baseline controls. Substrate hydrolysis was monitored every 5 minutes for a total of 30 minutes using a Fluoroskan II fluorescence plate reader. […] Inhibition of calpain I activity was calculated as the percent decrease in the rate of substrate hydrolysis in the presence of inhibitor relative to the rate in its absence. Comparison between the inhibited and control rates was made within the linear range for substrate hydrolysis. For screening, compounds were tested at […]. […] The results were plotted as percent inhibition versus log inhibitor concentration, and the IC50 was calculated from linear regression of the data.
As for `CCN1C(C(=O)N[C@@H](Cc2ccccc2)C(O)S(=O)(=O)O)Cc2cc3c(cc2S1(=O)=O)OCCO3` (stereo partly drawn) [Example 187, N-(3,4-Dihydro-6,7-ethylenedioxy-2-ethyl-2H-1,2-benzothiazine-3-carbonyl)-L-phenylalaninal 1,1-dioxide, bisulfite addition compound], the IC50 (commonly the concentration that inhibits the measured activity by half) is 8 nM.

Staying with this assay, now noted: Table II; calpain I, 0.2 mM Succ-Leu-Tyr-MNA, pH 7.5; * mixture of diastereomers, a,b single diastereomers; read-out: IC50.
Turning to `COc1cc2c(cc1OC)S(=O)(=O)N(C)C(C(=O)N[C@H](C=O)Cc1ccccc1)C2` (stereo partly drawn) [Cpd 12e, N-(3,4-Dihydro-6,7-dimethoxy-2-methyl-2H-1,2-benzothiazine-3-carbonyl)-L-phenylalaninal 1,1-dioxide], the 50% inhibitory concentration (IC50) was 200 nM.

Turning to `CCNC(=O)C(=O)[C@H](Cc1ccccc1)NC(=O)C1Cc2cc(Cl)ccc2S(=O)(=O)N1C` (stereo partly drawn) [Cpd 14A, N-Ethyl-3-(6-chloro-3,4-dihydro-2-methyl-2H-1,2-benzothiazine-3-carboxamido)-2-oxo-3-(S)-benzylpropanamide 1,1-dioxide], the half-maximal inhibitory concentration (IC50) was approximately 1000 nM.

As to `CN1C(C(=O)N[C@H](C=O)Cc2ccccc2)Cc2cc(N3CCOCC3)ccc2S1(=O)=O` (stereo partly drawn) [Cpd 12z, N-(3,4-Dihydro-6-(4-morpholino)-2-methyl-2H-1,2-benzothiazine-3-carbonyl)-L-phenylalaninal 1,1-dioxide], the IC50 was approximately 500 nM.

Consider `COc1cc2c(cc1OC)S(=O)(=O)NC(C(=O)N[C@H](C=O)Cc1ccccc1)C2` (single isomer, unassigned) [Cpd 12c, N-(3,4-Dihydro-6,7-dimethoxy-2H-1,2-benzothiazine-3-carbonyl)-L-phenylalaninal 1,1-dioxide], for which the IC50 was approximately 800 nM.

For `COc1cc2c(cc1OC)S(=O)(=O)OC(C(=O)N[C@H](C=O)CC(C)C)C2` (stereo partly drawn) [Cpd 12a, N-(3,4-Dihydro-6,7-dimethoxy-2,1-benzoxathiin-3-carbonyl)-L-leucinal 1,1-dioxide], the IC50 came out at 130 nM.

Take `CN1C(C(=O)N[C@H](C=O)Cc2ccccc2)Cc2ccccc2S1(=O)=O` (stereo partly drawn) [Cpd 12i, N-(3,4-Dihydro-2-methyl-2H-1,2-benzothiazine-3-carbonyl)-L-phenylalaninal 1,1-dioxide]: the half-inhibitory concentration (IC50) is 28 nM.

Turning to `CC(C)CN1C(C(=O)N[C@H](C=O)Cc2ccccc2)Cc2cc(Cl)ccc2S1(=O)=O` (stereo partly drawn) [Cpd 12n, N-(3,4-Dihydro-6-chloro-2-isobutyl-2H-1,2-benzothiazine-3-carbonyl)-L-phenylalaninal 1,1-dioxide], the IC50 is approximately 200 nM.

Turning to `CC(C)N1C(C(=O)N[C@H](C=O)Cc2ccccc2)Cc2cc3c(cc2S1(=O)=O)OCCO3` (stereo partly drawn) [Cpd 12u, N-(3,4-Dihydro-6,7-ethylenedioxy-2-isopropyl-2H-1,2-benzothiazine-3-carbonyl)-L-phenylalaninal 1,1-dioxide], the 50% inhibitory concentration (IC50) stood at 30 nM.

The assay is the same for the next values; noted with them: Table III; calpain I, 0.2 mM Succ-Leu-Tyr-MNA, pH 7.5; * mixture of diastereomers, a,b single diastereomers; read-out: IC50.
On to `CCN1C(C(=O)N[C@@H](Cc2ccccc2)C(=O)C(=O)NCCCNS(=O)(=O)c2ccc(F)cc2)Cc2cc3c(cc2S1(=O)=O)OCCO3` (stereo partly drawn) [Cpd 14Z, 3-((3,4-Dihydro-6,7-ethylenedioxy-2-ethyl-2H-1,2-benzothiazine-3-carbonyl)amino)-3-(S)-benzyl-2-oxo-N-(3-(4-fluorobenzenesulfonylamino)propyl)propanamide 1,1-dioxide], for which the 50% inhibitory concentration (IC50) was 50 nM.

As for `CCN1C(C(=O)N[C@@H](Cc2ccccc2)C(=O)C(=O)NCCNS(=O)(=O)c2ccc(F)cc2)Cc2cc3c(cc2S1(=O)=O)OCCO3` (stereo partly drawn) [Cpd 14AC, 3-((3,4-Dihydro-6,7-ethylenedioxy-2-ethyl-2H-1,2-benzothiazine-3-carbonyl)amino)-3-(S)-benzyl-2-oxo-N-(2-(4-fluorobenzenesulfonylamino)ethyl)propanamide 1,1-dioxide], the IC50 amounted to 29 nM.

For `CCN1C(C(=O)N[C@@H](Cc2ccccc2)C(=O)C(=O)NCCNS(=O)(=O)c2ccc(Cl)c(Cl)c2)Cc2cc3c(cc2S1(=O)=O)OCCO3` (stereo partly drawn) [Cpd 14V, 3-((3,4-Dihydro-6,7-ethylenedioxy-2-ethyl-2H-1,2-benzothiazine-3-carbonyl)amino)-3-(S)-benzyl-2-oxo-N-(2-(3,4-dichlorobenzenesulfonylamino)ethyl)propanamide 1,1-dioxide], the IC50 was 56 nM.

In the case of `CCN1C(C(=O)N[C@@H](Cc2ccccc2)C(=O)C(=O)NCCNS(=O)(=O)c2ccc([N+](=O)[O-])cc2)Cc2cc3c(cc2S1(=O)=O)OCCO3` (stereo partly drawn) [Cpd 14T, 3-((3,4-Dihydro-6,7-ethylenedioxy-2-ethyl-2H-1,2-benzothiazine-3-carbonyl)amino)-3-(S)-benzyl-2-oxo-N-(2-(4-nitrobenzenesulfonylamino)ethyl)propanamide 1,1-dioxide], the concentration for half-maximal inhibition (IC50) was 47 nM.

Turning to `CCN1C(C(=O)N[C@@H](Cc2ccccc2)C(=O)C(=O)NCCNS(=O)(=O)c2ccccc2)Cc2cc3c(cc2S1(=O)=O)OCCO3` (stereo partly drawn) [Cpd 14X, 3-((3,4-Dihydro-6,7-ethylenedioxy-2-ethyl-2H-1,2-benzothiazine-3-carbonyl)amino)-3-(S)-benzyl-2-oxo-N-(2-(benzenesulfonylamino)ethyl)propanamide 1,1-dioxide], the IC50 turned out to be 40 nM.

For `CCN1C(C(=O)N[C@@H](Cc2ccccc2)C(=O)C(=O)NCCNS(C)(=O)=O)Cc2cc3c(cc2S1(=O)=O)OCCO3` (stereo partly drawn) [Cpd 14S], the IC50 came out at 89 nM.

With `CCNC(=O)C(=O)[C@H](Cc1ccccc1)NC(=O)C1Cc2cc3c(cc2S(=O)(=O)N1CC)OCCO3` (stereo partly drawn) [Cpd 14D], the IC50 was found to be 340 nM.

Staying with this assay, now noted: Table IV; calpain I, 0.2 mM Succ-Leu-Tyr-MNA, pH 7.5; read-out: IC50.
For `CCCCNC(=O)C(=O)[C@H](Cc1ccccc1)NC(=O)C1=Cc2cc3c(cc2S(=O)(=O)N1C)OCCO3` [Cpd 27e, 3-((6,7-Ethylenedioxy-2-methyl-2H-1,2-benzothiazine-3-carbonyl)amino)-3-(S)-benzyl-2-oxo-N-butylpropanamide 1,1-dioxide], the concentration for half-maximal inhibition (IC50) came out at 210 nM.

As to `CCCCNC(=O)C(=O)[C@H](Cc1ccccc1)NC(=O)C1=C(OC)c2ccccc2S(=O)(=O)N1C` [Cpd 27g, 3-((4-Methoxy-2-methyl-2H-1,2-benzothiazine-3-carbonyl)amino)-3-(S)-benzyl-2-oxo-N-butylpropanamide 1,1-dioxide], the half-inhibitory concentration (IC50) was determined as 900 nM.

For the molecule `CCCCNC(=O)C(=O)[C@H](Cc1ccccc1)NC(=O)C1=C(O)c2ccccc2S(=O)(=O)N1C` [Cpd 27h, 3-((4-Hydroxy-2-methyl-2H-1,2-benzothiazine-3-carbonyl)amino)-3-(S)-benzyl-2-oxo-N-butylpropanamide 1,1-dioxide], the half-inhibitory concentration (IC50) was approximately 10000 nM.

As for `COC1=C(C(=O)N[C@H](C=O)Cc2ccccc2)N(C)S(=O)(=O)c2ccccc21` [Cpd 26d, N-(2-Methyl-4-methoxy-2H-1,2-benzothiazine-3-carbonyl)-L-phenylalaninal 1,1-dioxide], the IC50 turned out to be 37 nM.

For the molecule `CN1C(C(=O)N[C@H](C=O)Cc2ccccc2)=Cc2cc3c(cc2S1(=O)=O)OCCO3` [Cpd 26b, N-(6,7-Ethylenedioxy-2-methyl-2H-1,2-benzothiazine-3-carbonyl)-L-phenylalaninal 1,1-dioxide], the half-maximal inhibitory concentration (IC50) amounted to 6 nM.

Regarding `CCCCNC(=O)C(=O)[C@H](Cc1ccccc1)NC(=O)C1=Cc2cc3c(cc2S(=O)(=O)N1CC)OCCO3` [Cpd 27f], the IC50 amounted to 155 nM.

Staying with this assay, now noted: Table V; calpain I, 0.2 mM Succ-Leu-Tyr-MNA, pH 7.5; * mixture of diastereomers, a,b single diastereomers; read-out: IC50.
For the molecule `CCN1C(C(=O)N[C@H](C=O)Cc2ccccc2)N(Cc2ccccc2)c2ccccc2S1(=O)=O` (single isomer, unassigned) [Cpd 35d, N-(3,4-Dihydro-2-ethyl-4-benzyl-2H-1,2,4-benzothiadiazine-3-carbonyl)-L-phenylalaninal 1,1-dioxide], the half-inhibitory concentration (IC50) was approximately 1000 nM.

Turning to `CCCCNC(=O)C(=O)[C@H](Cc1ccccc1)NC(=O)C1Nc2ccccc2S(=O)(=O)N1C` (stereo partly drawn) [Cpd 35e, 3-((3,4-Dihydro-4H-2-methyl-2H-1,2,4-benzothiadiazine-3-carbonyl)amino)-3-(S)-benzyl-2-oxo-N-butylpropanamide 1,1-dioxide], the IC50 is approximately 2000 nM.

For the origin of these results see patent US5952328A, “Benzothiazo and related heterocyclic group-containing cysteine and serine protease inhibitors” (Cephalon, Inc., priority 1997, dated 1999).
